Measured values published in patent EP0753308A2, “Use of lactoferrin for therapy of acute or recurrent infectious diseases by streptococcus pyogenes or other intracellular gram positive pathogen bacteria” (priority 1995, dated 1997).

Columns and labels:
S. pyogenes 95/1 = assay: Invasion assay in HeLa cell monolayers (gentamicin protection, CFU of viable intracellular bacteria); type: cell-based, Streptococcus pyogenes; conditions: control 5 x 10^5; for Internalized bacteria (CFU/ml): absence of lactoferrin
Procedure: (§1) Streptococcus pyogenes strain 95/1 was cultured in Todd-Hewitt broth (Difco lab.). Blood agar was used for counting coloning forming units (C.F.U.). Staphylococcus aureus strain 94/3 was cultured in Brain Hearth Infusion (BHI). Mannitol Salt Agar was used for C.F.U. counts. HeLa S3 human epitelial cells (derived from epithelioid carcinoma of human cervix) were grown as monolayers at 37°C in Eagle's MEM containing 1.2 g/l of NaCo3, 2 mM glutamine, 100 U/ml penicillin, 0.1 mg/ml streptomycin and 10% heat inactivated foetal calf serum in 5% CO2 on 24-well tissue culture clusters (costar) by loading 1 ml of a solution of 1.5x10^5 cells/ml.
(§2) Semiconfluent monolayers of HeLa cells were infected with a bacterial suspension (at a multiplicity of infection of 100 exponentially grown bacteria per cell) deriving from a bacterial subculture after an incubation at 37°C for 120 min in the presence and absence of lactoferrin added at no cytotoxic nor antibacterial concentrations. After the bacterial infection (2 h at 37°C ), the monolayer was five-fold carefully washed with fosfate buffered saline (PBS) and then fresh medium (MEM, Seromed) containing 200 ug/ml of gentamicin was added. This antibiotic is well known for its impossibility to penetrate into the eukaryotic cells and to exert its bactericidal effect only towards the extracellular bacteria (free or adhered to the cells). Alter 2 h incubation period at 37°C in gentamicin, the infected cells were whashed three times with PBS and lysed by the addition of cold 0.1% Triton-X 100.
The cellular lysate was diluited with PBS and plated on selective agar medium in order to determine viable intracellular bacteria.

S. aureus = assay: as above; type: cell-based, Staphylococcus aureus; conditions: proteins 1 mg/ml; erythromycin 0.02 mg/ml where present; control 7 x 10^5
Procedure: as §1
as §2, with “Alter 2 h incubation period at 37°C in gentamicin, the infected cells were whashed three times with PBS and lysed by the addition of cold 0.1% Triton-X 100.” left out

Compound | Internalized bacteria (CFU/ml) (S. pyogenes 95/1; bacteria cultured with subinhibiting antibiotic 0.1 ug/ml) | Internalized bacteria (CFU/ml) (S. pyogenes 95/1; bacteria cultured with subinhibiting antibiotic 20 ug/ml) | Intracellular bacteria (CFU/ml S. pyogenes) (S. pyogenes 95/1; proteins 1 mg/ml, erythromycin 0.02 mg/ml where present) | Intracellular bacteria (CFU/ml S. aureus) (S. aureus)
CC1(C)S[C@@H]2[C@H](NC(=O)[C@H](N)c3ccccc3)C(=O)N2[C@H]1C(=O)O [Ampicillin, ampicillin] | 2 x 10^5 CFU/ml |  |  | 
CC[C@H]1OC(=O)[C@H](C)[C@@H](O[C@H]2C[C@@](C)(OC)[C@@H](O)[C@H](C)O2)[C@H](C)[C@@H](O[C@@H]2O[C@H](C)C[C@H](N(C)C)[C@H]2O)[C@](C)(O)C[C@@H](C)C(=O)[C@H](C)[C@@H](O)[C@]1(C)O [Erythromycin, erythromycin] |  | 2 x 10^5 CFU/ml | 2 x 10^5 CFU/ml | 3 x 10^5 CFU/ml
